Experimental data as given in patent US9193954B2, “Methods and compositions for mesenchymal stem cell proliferation” (priority 2011, dated 2015).

What was measured:
Assay type in all cases: cell-based, human
PEG-encapsulated hMSCs = test: PEG-encapsulated hMSC proliferation by total cellular DNA concentration (PicoGreen)
Experimental: FIG. 7 Schematic representation of 18 day PEG-encapsulated hMSC culture after 24 hr exposure to BIO-containing media (A). Cell DNA concentration was quantified on days 0, 1, 5, 12, and 18 and shown to undergo a dose-dependent, BIO-mediated increase in proliferation (B), as previously shown in two-dimensional cultures. Representative LIVE/DEAD confocal images of PEG-encapsulated BIO-treated hMSC cultures (C).
A 10 wt % solution of PEGDM was prepared in phosphate buffered saline (PBS) with 2.0 mM acryloyl-PEG-RGDS. The photoinitiator lithium phenyl-2,4,6-trimethylbenzoylphosphinate (LAP) was synthesized using conventional techniques and added at a final concentration of 0.05 wt %. Trypsinized hMSCs were centrifuged to form pellets and counted. The PEG macromer solution was added to the cell pellet, and volumes were adjusted to achieve a final cell concentration of 25 million cells/mL. Using a sterile 1 mL syringe with the tip removed as a mold, 40 μL of PEG/cell solution was added and exposed to long-wavelength 365 nm light (5 mW/cm^2 intensity) for 10 min at room temperature. […]
Encapsulated hMSC proliferation was assessed using total cellular DNA concentration, assuming constant DNA per cell, using a Quant-iT PicoGreen dsDNA Assay Kit (Invitrogen). […]

hMSCs [1] = test: alamarBlue metabolic assay of hMSC proliferation after BIO dosing (Example 1); details: for effect on hMSC population (alamarBlue): 24 hr dosing
Experimental: FIG. 1. Proliferative effect of BIO after 24 hr dosing; 0 μM (-□-, grey squares), 2 μM (-∘-, open circles), 5 μM (-▴-, black triangles), 10 μM (-X-, black crosses). Proliferation was assessed using alamarBlue metabolic assay. Error bars shown are standard error (n=3).
The small molecule GSK3β inhibitor 6-bromoindirubin-3′-oxime was synthesized as previously described (Polychronopoulos et al., J Med Chem. 2004; 47(4):935-46). It is also commercially available (such as from Sigma). The molecule was solubilized in dimethyl sulfoxide (DMSO) to specified concentrations. hMSCs were plated at a density of 5,000 cell/cm2 in 24-well tissue culture plates. Cells were allowed to become adherent for a period of 24 hrs before BIO was introduced. 10 μL of BIO in DMSO were added to 1 mL of culture media so that the final concentrations of 2, 5, and 10 μM were achieved. […] Culture continued over 33 days with media being replaced every three days. An alamarBlue cell viability assay was performed on days: −1 (before BIO treatment), 0, 4, 8, 12, 14, 17, 23, 26, 28, and 33. Cell population was normalized to alamarBlue readings after the initial period of 24 hr BIO dosing.

hMSCs [2] = test: Two-dimensional hMSC proliferation by manual cell counts (trypan blue, hemocytometer); details: for increase in cell population compared to untreated controls: day 41, 24 hr treatment
Experimental: FIG. 4 Schematic representation of 41 day hMSC monolayer culture after 24 hr exposure to BIO-containing media (A). Cells were trypsinized and manually counted on days 0, 1, 3, 6, 19, 27, 34, 37, and 41 and shown to undergo a dose-dependent, BIO-mediated increase in proliferation (B).
hMSCs or C3H10T1/2s were seeded at a density of 5,000 cell/cm^2 in 24-well tissue culture plates (Greiner Bio-One, Monroe, N.C.) and allowed to become adherent over a period of 24 hrs prior to treatment. BIO was solubilized in dimethyl sulfoxide (DMSO) to prepare 200 and 500 μM stock solutions. 10 μL of BIO in DMSO was added to 1 mL of culture media so that the final concentrations of 0, 2, and 5 μM were achieved. The cells were cultured with BIO-containing media for 24 hrs after which media was replaced by media without BIO, as illustrated in FIGS. 4a and 7a (two-dimensional treatment and three-dimensional treatment respectively).
During culture, hMSC viability was periodically assessed using an alamarBlue metabolic assay (AbD Serotec, UK). Culture media was replaced with a 10% alamarBlue-media solution and allowed to incubate at 37° C. for 2 hr. After incubation, alamarBlue solution was transferred to black 96-well plates and media was refreshed. Fluorescence intensity was measured using a Tecan Infinite 200 PRO plate-reader (excitation/emission: 570/600 nm). To assess hMSC proliferation, cells were trypsinized and counted using trypan blue exclusion and a hemocytometer. Average cell counts were normalized to data collected on day 0 to illustrate the effect of BIO on hMSC proliferation over time.

[3] = system: stem markers Sox2 and Nanog; test: RT-PCR of stem markers Sox2 and Nanog at end of 33 day culture, normalized to GAPDH (Example 1); details: end of 33 day time course
Experimental: FIG. 2 RNA was harvested from BIO treated hMSCs at day […] and analyzed for expression of stem markers Sox2 and Nanog. Expression was normalized to housekeeping gene GAPDH. Error bars shown are standard error (n=3).
At the end of the 33 day experimental time course RNA was isolated (Omega E.N.Z.A total RNA kit) from the hMSC specimens (n=3) and reverse transcription (Bio-Rad iSCRIPT cDNA synthesis kit) was performed to yield cDNA. Forward and reverse primers (Table 1.) for the stem markers Sox2 and Nanog as well as the housekeeping gene, GAPDH (Glyceraldehyde 3-phosphate dehydrogenase) were then used to quantify gene expression. Expressions of genes of interest (Sox2 and Nanog) were normalized to control (GAPDH). We observed a dose dependent increase in both Sox2 and Nanog gene expression. Sox2 expression increased ˜30% and ˜50% with 2 μM and 5 μM BIO treatment, while Nanog expression increased >100% with 5 μM BIO treatment (FIG. 2).

hMSCs [4] = test: hMSC cell layer thickness by confocal microscopy; details: for cell layer thickness: day 40
Experimental: hMSC cell layer thickness was measured using the z-directional controls of a FV1000 Olympus Laser Scanning Confocal Microscope. On days 1, 14, and 40 cells, seeded on optically clear glass bottom 24-well culture plates (MatTek, Ashland, Mass.) were stained using a fluorescent LIVE/DEAD Viability/Cytotoxicity kit (Invitrogen). The focal plane of the microscope was adjusted to the cell-plate interface and set to zero. Using the z-directional controls the focal plane was raised until the live fluorescently stained cells were no longer visible at which point the cell layer thickness was recorded.

O=C1Nc2cc(Br)ccc2/C1=C1/Nc2ccccc2/C1=N\O [BIO, 6-bromoindirubin-3′-oxime]
3D proliferation relative to untreated control (PEG-encapsulated hMSCs; 5 uM BIO): 120%
increase in proliferation (normalized DNA concentration) versus 0 μM (PEG-encapsulated hMSCs; 5 μM BIO, at both days 12 and 18, PEG hydrogels): 20%
effect on hMSC population (alamarBlue) (hMSCs [1]; BIO 2-5 μM): dose dependent proliferative response
effect on hMSC population (alamarBlue) (hMSCs [1]; BIO concentrations below 2 μM): did not have a noticeable effect
effect of continual dosing on hMSCs (hMSCs [1]; continual dosing with BIO, parallel study (data not shown)): complete cell death by day 5
2D proliferation relative to untreated control (hMSCs [2]; 2 uM BIO): 155%
increase in cell population compared to untreated controls (hMSCs [2]; 2 μM BIO): 4.5 fold
2D proliferation relative to untreated control (hMSCs [2]; 5 uM BIO): 172%
increase in cell population compared to untreated controls (hMSCs [2]; 5 μM BIO): 5.5 fold
hMSC population increase (hMSCs [2]; BIO-treated hMSCs, concentration and day not stated): ~4 fold
Sox2 expression increase ([3]; 2 μM BIO): ~30%
Nanog expression increase ([3]; 5 μM BIO): > 100%
Sox2 expression increase ([3]; 5 μM BIO): ~50%
cell layer thickness (hMSCs [4]; 2 μM BIO): 23.5 μm
cell layer thickness (hMSCs [4]; 5 μM BIO): 24.0 μm
cell layer thickness versus untreated control (hMSCs [4]; day 0 and 14): no statistically significant differences
